Results from paper PMC5517430, “2,3,7,8-Tetrachlorodibenzo-p-dioxin (TCDD)-elicited effects on bile acid homeostasis: Alterations in biosynthesis, enterohepatic circulation, and microbial metabolism” (Scientific Reports, 2017).

Tests used:
liver of C57BL/6 mice [1] = test: Histopathological scoring of liver sections; assay type: in vivo, mouse; set-up: Fibrosis (periportal), Mean Grade / Vacuolation (centrilobular), Mean Grade / Necrosis; Inflammatory cell foci, Mean Grade / Bile duct proliferation, Mean Grade: scale not given here; settings: for Bile duct proliferation, Mean Grade / Fibrosis (periportal), Mean Grade / Necrosis; Inflammatory cell foci, Mean Grade / Vacuolation (centrilobular), Mean Grade: mean ±SD; for Dose at which hepatocyte vacuolization (fatty change) was first observed / Doses at which minimal to slight hepatocyte necrosis and inflammatory cell infiltration were present: every 4 d for 28 d
Experimental: Postnatal day 25 (PND25) male C57BL/6 mice weighing within 10% of each other were obtained from Charles River Laboratories (Kingston, NY) and housed in Innovive Innocages (San Diego, CA) containing ALPHA-dri bedding (Shepherd Specialty Papers, Chicago, IL) in a 23 °C environment with 30–40% humidity and a 12-hour light/dark cycle (7am–7 pm). Mice were provided Aquavive water (Innovive) and Harlan Teklad 22/5 Rodent Diet 8940 (Madison, WI) ad libitum, and were acclimated for […] prior to treatment. Beginning on PND28, animals (n = 8; co-housed 4 per cage) were orally gavaged with sesame oil vehicle (Sigma-Aldrich, St. Louis, MO), 0.01, 0.03, 0.1, 0.3, 1, 3, 10, or 30 μg/kg TCDD (AccuStandard, New Haven, CT) every 4d for a total of 28d (7 exposures; Supplementary Fig. S3). The doses used compensate for the relatively short study duration compared to lifelong cumulative human exposure from diverse AhR ligands, the bioaccumulative nature of halogenated AhR ligands, and differences in TCDD’s metabolism and half-life (humans: 1–11 years, [61], mice: 8–12d[62]). TCDD doses between 0.01 and 30 µg/kg result in mouse hepatic tissue levels that span human background serum concentrations reported in the United States, Germany, Spain, and the United Kingdom as well as serum levels in Viktor Yushchenko 4–39 months following intentional poisoning. For the histopathological comparison, female C57BL/6 mice were orally gavaged with sesame oil vehicle or 0.01–30 µg/kg TCDD every 4d for 28d, as previously described. All animal handling procedures were performed with the approval of the Michigan State University (MSU) Institutional Animal Care and Use Committee, in accordance with the relevant ethical guidelines and regulations.
(§1) All processing was performed by the MSU Investigative Histopathology Laboratory (https://humanpathology.natsci.msu.edu/). Formalin-fixed hepatic tissues were vacuum infiltrated with paraffin using a Tissue-Tek VIP 2000 tissue processor (Sakura) and embedded with the Thermo Fisher HistoCentre III Embedding Center (Thermo Fisher, Waltham, Massachusetts). Paraffin blocks were sectioned at 4–5 µm with a Reichert Jung 2030 rotary microtome (Reichert, Depew, New York) and dried for 2–24 h at 56 °C to ensure adherence to the slides. For lipid staining, liver sections frozen in O.C.T. compound were sectioned at 6 µm, fixed in 10% NBF for 5 min, rinsed with water, and immersed in 100% propylene glycol for 5 min. Liver sections were stained with hematoxylin and eosin (H&E) for general histological assessment. Lipids were stained using Oil Red O (ORO) as previously described. Macrophages were labeled using a monoclonal anti-mouse F4/80 antibody (1:100 dilution; AbD Serotec, Raleigh, NC). Collagen was stained with 0.1% Picro-Sirius Red (PSR) dye, with Weigert’s Hematoxylin nuclear dye. Histological assessment of hepatic tissue from female C57BL/6 mice was performed as previously described, [32].

liver of C57BL/6 mice [2] = test: QuHAnT quantitation of Oil Red O staining (hepatic fat accumulation); assay type: in vivo, mouse; settings: 30 µg/kg TCDD every 4 d for 28 d
Experimental: as §1, with “Macrophages were labeled using a monoclonal anti-mouse F4/80 antibody (1:100 dilution; AbD Serotec, Raleigh, NC). Collagen was stained with 0.1% Picro-Sirius Red (PSR) dye, with Weigert’s Hematoxylin nuclear dye. Histological assessment of hepatic tissue from female C57BL/6 mice was performed as previously described, [32].” left out
Quantitation of ORO staining was performed using the Quantitative Histological Analysis Tool (QuHAnT)[66]. […] Using ImageJ (http://rsb.info.nih.gov.ij/), optimal hue, saturation, and value (HSV) image segmentation thresholds for feature extraction were determined to be 0 to 50 and 225 to 255 (hue), 125 to 255 (saturation), and 0 to 255 (value), while optimal total tissue feature extraction thresholds were 0 to 255 (hue), 20 to 255 (saturation), and 0 to 255 (value). […]

hepatic cholesterol = system: hepatic cholesterol; set-up: method as in PMID 28238261; settings: male C57BL/6 mice, 30 µg/kg TCDD every 4 d for 28 d, cited from earlier work
[3] = system: hepatic taurine and glycine; set-up: method as in PMID 26582802; settings: female mice, cited from earlier work
[4] = female, 0.3 µg/kg TCDD every 4 d for 28 d
[5] = female, 1 µg/kg TCDD every 4 d for 28 d
[6] = female, 3 µg/kg TCDD every 4 d for 28 d
[7] = female, 10 µg/kg TCDD every 4 d for 28 d
[8] = female, 30 µg/kg TCDD every 4 d for 28 d
[9] = male, 0.3 µg/kg TCDD every 4 d for 28 d
[10] = male, 1 µg/kg TCDD every 4 d for 28 d
[11] = male, 3 µg/kg TCDD every 4 d for 28 d
[12] = male, 10 µg/kg TCDD every 4 d for 28 d
[13] = male, 30 µg/kg TCDD every 4 d for 28 d

Structure (SMILES): Clc1cc2c(cc1Cl)Oc1cc(Cl)c(Cl)cc1O2 [TCDD, 2,3,7,8-tetrachlorodibenzo-p-dioxin]
- Inflammation surrounding the bile ducts (pericholangitis) (liver of C57BL/6 mice [1]; 30 µg/kg TCDD every 4 d for 28 d, male vs female): exclusive to males
- Bile duct proliferation, Incidence (liver of C57BL/6 mice [1]; [4]): 0/8
- Fibrosis (periportal), Incidence (liver of C57BL/6 mice [1]; [4]): 0/8
- Necrosis; Inflammatory cell foci, Incidence (liver of C57BL/6 mice [1]; [4]): 0/8
- Vacuolation (centrilobular), Incidence (liver of C57BL/6 mice [1]; [4]): 0/8
- Bile duct proliferation, Incidence (liver of C57BL/6 mice [1]; [5]): 0/6
- Fibrosis (periportal), Incidence (liver of C57BL/6 mice [1]; [5]): 0/6
- Necrosis; Inflammatory cell foci, Incidence (liver of C57BL/6 mice [1]; [5]): 0/6
- Vacuolation (centrilobular), Incidence (liver of C57BL/6 mice [1]; [5]): 0/6
- Bile duct proliferation, Incidence (liver of C57BL/6 mice [1]; [6]): 0/6
- Fibrosis (periportal), Incidence (liver of C57BL/6 mice [1]; [6]): 0/6
- Necrosis; Inflammatory cell foci, Incidence (liver of C57BL/6 mice [1]; [6]): 0/6
- Vacuolation (centrilobular), Incidence (liver of C57BL/6 mice [1]; [6]): 0/6
- Bile duct proliferation, Incidence (liver of C57BL/6 mice [1]; [7]): 0/4
- Fibrosis (periportal), Incidence (liver of C57BL/6 mice [1]; [7]): 0/4
- Necrosis; Inflammatory cell foci, Incidence (liver of C57BL/6 mice [1]; [7]): 0/4
- Vacuolation (centrilobular), Incidence (liver of C57BL/6 mice [1]; [7]): 1/4
- Bile duct proliferation, Incidence (liver of C57BL/6 mice [1]; [8]): 1/4
- Fibrosis (periportal), Incidence (liver of C57BL/6 mice [1]; [8]): 1/4
- Necrosis; Inflammatory cell foci, Incidence (liver of C57BL/6 mice [1]; [8]): 1/4
- Vacuolation (centrilobular), Incidence (liver of C57BL/6 mice [1]; [8]): 4/4
- Bile duct proliferation, Mean Grade (liver of C57BL/6 mice [1]; [8]): 0.3 ± 0.5
- Fibrosis (periportal), Mean Grade (liver of C57BL/6 mice [1]; [8]): 0.3 ± 0.5
- Necrosis; Inflammatory cell foci, Mean Grade (liver of C57BL/6 mice [1]; [8]): 0.3 ± 0.5
- Vacuolation (centrilobular), Mean Grade (liver of C57BL/6 mice [1]; [8]): 2.0 ± 1.2
- Dose at which hepatocyte vacuolization (fatty change) was first observed (liver of C57BL/6 mice [1]; females): 10 µg/kg
- Doses at which minimal to slight hepatocyte necrosis and inflammatory cell infiltration were present (liver of C57BL/6 mice [1]; females): 30 µg/kg
- Bile duct proliferation, Incidence (liver of C57BL/6 mice [1]; [9]): 0/8
- Fibrosis (periportal), Incidence (liver of C57BL/6 mice [1]; [9]): 0/8
- Necrosis; Inflammatory cell foci, Incidence (liver of C57BL/6 mice [1]; [9]): 0/8
- Vacuolation (centrilobular), Incidence (liver of C57BL/6 mice [1]; [9]): 1/8
- Vacuolation (centrilobular), Mean Grade (liver of C57BL/6 mice [1]; [9]): 0.1 ± 0.4
- Bile duct proliferation, Incidence (liver of C57BL/6 mice [1]; [10]): 0/8
- Fibrosis (periportal), Incidence (liver of C57BL/6 mice [1]; [10]): 0/8
- Necrosis; Inflammatory cell foci, Incidence (liver of C57BL/6 mice [1]; [10]): 0/8
- Vacuolation (centrilobular), Incidence (liver of C57BL/6 mice [1]; [10]): 5/8
- Vacuolation (centrilobular), Mean Grade (liver of C57BL/6 mice [1]; [10]): 0.9 ± 0.8
- Bile duct proliferation, Incidence (liver of C57BL/6 mice [1]; [11]): 0/8
- Fibrosis (periportal), Incidence (liver of C57BL/6 mice [1]; [11]): 0/8
- Necrosis; Inflammatory cell foci, Incidence (liver of C57BL/6 mice [1]; [11]): 2/8
- Vacuolation (centrilobular), Incidence (liver of C57BL/6 mice [1]; [11]): 6/8
- Necrosis; Inflammatory cell foci, Mean Grade (liver of C57BL/6 mice [1]; [11]): 0.3 ± 0.5
- Vacuolation (centrilobular), Mean Grade (liver of C57BL/6 mice [1]; [11]): 1.0 ± 0.8
- Bile duct proliferation, Incidence (liver of C57BL/6 mice [1]; [12]): 0/8
- Fibrosis (periportal), Incidence (liver of C57BL/6 mice [1]; [12]): 0/8
- Necrosis; Inflammatory cell foci, Incidence (liver of C57BL/6 mice [1]; [12]): 6/8
- Vacuolation (centrilobular), Incidence (liver of C57BL/6 mice [1]; [12]): 8/8
- Necrosis; Inflammatory cell foci, Mean Grade (liver of C57BL/6 mice [1]; [12]): 0.8 ± 0.5
- Vacuolation (centrilobular), Mean Grade (liver of C57BL/6 mice [1]; [12]): 3.0 ± 0.5
- Bile duct proliferation, Incidence (liver of C57BL/6 mice [1]; [13]): 5/8
- Fibrosis (periportal), Incidence (liver of C57BL/6 mice [1]; [13]): 5/8
- Necrosis; Inflammatory cell foci, Incidence (liver of C57BL/6 mice [1]; [13]): 8/8
- Vacuolation (centrilobular), Incidence (liver of C57BL/6 mice [1]; [13]): 8/8
- Bile duct proliferation, Mean Grade (liver of C57BL/6 mice [1]; [13]): 0.9 ± 0.8
- Fibrosis (periportal), Mean Grade (liver of C57BL/6 mice [1]; [13]): 0.6 ± 0.5
- Necrosis; Inflammatory cell foci, Mean Grade (liver of C57BL/6 mice [1]; [13]): 1.3 ± 0.5
- Vacuolation (centrilobular), Mean Grade (liver of C57BL/6 mice [1]; [13]): 4.0 ± 0.0
- Dose at which hepatocyte vacuolization (fatty change) was first observed (liver of C57BL/6 mice [1]; males): 0.3 µg/kg
- Doses at which minimal to slight hepatocyte necrosis and inflammatory cell infiltration were present (liver of C57BL/6 mice [1]; males): ≥ 3 µg/kg
- Hepatic fat accumulation (ORO), males compared to females (liver of C57BL/6 mice [2]): 6.2 fold
- Hepatic cholesterol ester level, fold increase (hepatic cholesterol): 11.3 fold
- Hepatic cholesterol level, fold increase (hepatic cholesterol; not confirmed by high resolution MS/MS): 9.0 fold
- Hepatic taurine level, max fold increase ([3]; p = 0.05): 1.4 fold
- Hepatic glycine level, max fold increase ([3]; p = 0.10): 20.3 fold
